Tests used:
Experiment in all cases: PubChem AID 588472; call rule not given here
[1] = target: Protein-arginine deiminase type-3 (Homo sapiens) (UniProt Q9ULW8); settings: recombinant PAD1-4, colorimetric citrullination assay; PAD3
[2] = target: Protein-arginine deiminase type-2 (Homo sapiens) (UniProt Q9Y2J8); settings: recombinant PAD1-4, colorimetric citrullination assay; PAD2
[3] = target: Protein-arginine deiminase type-1 (Homo sapiens) (UniProt Q9ULC6); settings: recombinant PAD1-4, colorimetric citrullination assay; PAD1
Sequence of Protein-arginine deiminase type-1 (Homo sapiens) (Q9ULC6 whole entry, looked up): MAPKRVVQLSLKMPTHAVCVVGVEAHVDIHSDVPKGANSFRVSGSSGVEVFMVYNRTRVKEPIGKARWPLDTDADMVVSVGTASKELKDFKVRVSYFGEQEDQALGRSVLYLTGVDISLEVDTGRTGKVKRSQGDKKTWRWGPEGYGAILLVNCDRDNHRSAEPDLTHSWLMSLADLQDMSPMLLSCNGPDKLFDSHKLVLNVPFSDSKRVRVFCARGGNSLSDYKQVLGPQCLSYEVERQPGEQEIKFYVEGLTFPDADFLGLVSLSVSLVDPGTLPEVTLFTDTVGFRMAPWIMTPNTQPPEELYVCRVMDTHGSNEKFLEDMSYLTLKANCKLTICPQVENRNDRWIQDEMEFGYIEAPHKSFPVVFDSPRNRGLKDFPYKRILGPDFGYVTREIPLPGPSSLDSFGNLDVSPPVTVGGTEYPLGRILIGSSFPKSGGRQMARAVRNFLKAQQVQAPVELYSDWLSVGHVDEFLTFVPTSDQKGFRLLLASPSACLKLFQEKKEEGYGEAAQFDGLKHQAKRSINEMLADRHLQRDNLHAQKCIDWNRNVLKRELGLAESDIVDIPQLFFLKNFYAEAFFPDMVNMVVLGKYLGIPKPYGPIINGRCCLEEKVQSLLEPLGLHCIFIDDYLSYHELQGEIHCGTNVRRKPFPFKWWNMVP

[4] = target: Protein-arginine deiminase type-4 (Homo sapiens) (UniProt Q9UM07); settings: recombinant PAD1-4, colorimetric citrullination assay; PAD4
Sequence of Protein-arginine deiminase type-4 (Homo sapiens) (Q9UM07 whole entry, looked up): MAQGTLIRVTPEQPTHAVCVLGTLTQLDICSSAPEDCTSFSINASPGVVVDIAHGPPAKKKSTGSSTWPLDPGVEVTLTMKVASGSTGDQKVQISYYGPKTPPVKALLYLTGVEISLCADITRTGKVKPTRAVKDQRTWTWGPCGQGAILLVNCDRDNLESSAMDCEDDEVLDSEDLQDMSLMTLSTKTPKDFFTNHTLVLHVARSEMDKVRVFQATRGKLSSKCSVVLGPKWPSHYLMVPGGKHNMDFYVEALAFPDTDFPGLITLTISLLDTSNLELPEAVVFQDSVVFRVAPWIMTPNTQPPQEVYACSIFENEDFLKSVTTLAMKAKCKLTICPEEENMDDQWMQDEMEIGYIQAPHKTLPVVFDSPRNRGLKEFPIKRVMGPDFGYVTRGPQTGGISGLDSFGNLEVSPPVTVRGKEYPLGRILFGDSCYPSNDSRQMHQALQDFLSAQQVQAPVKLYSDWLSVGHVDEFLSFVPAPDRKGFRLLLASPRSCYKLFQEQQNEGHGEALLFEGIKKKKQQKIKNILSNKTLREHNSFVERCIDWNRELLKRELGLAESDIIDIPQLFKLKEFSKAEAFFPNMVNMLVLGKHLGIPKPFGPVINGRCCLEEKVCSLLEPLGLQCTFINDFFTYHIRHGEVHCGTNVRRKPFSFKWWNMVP

Measured: IC50

Sequence of Protein-arginine deiminase type-2 (Homo sapiens) (Q9Y2J8 whole entry, looked up): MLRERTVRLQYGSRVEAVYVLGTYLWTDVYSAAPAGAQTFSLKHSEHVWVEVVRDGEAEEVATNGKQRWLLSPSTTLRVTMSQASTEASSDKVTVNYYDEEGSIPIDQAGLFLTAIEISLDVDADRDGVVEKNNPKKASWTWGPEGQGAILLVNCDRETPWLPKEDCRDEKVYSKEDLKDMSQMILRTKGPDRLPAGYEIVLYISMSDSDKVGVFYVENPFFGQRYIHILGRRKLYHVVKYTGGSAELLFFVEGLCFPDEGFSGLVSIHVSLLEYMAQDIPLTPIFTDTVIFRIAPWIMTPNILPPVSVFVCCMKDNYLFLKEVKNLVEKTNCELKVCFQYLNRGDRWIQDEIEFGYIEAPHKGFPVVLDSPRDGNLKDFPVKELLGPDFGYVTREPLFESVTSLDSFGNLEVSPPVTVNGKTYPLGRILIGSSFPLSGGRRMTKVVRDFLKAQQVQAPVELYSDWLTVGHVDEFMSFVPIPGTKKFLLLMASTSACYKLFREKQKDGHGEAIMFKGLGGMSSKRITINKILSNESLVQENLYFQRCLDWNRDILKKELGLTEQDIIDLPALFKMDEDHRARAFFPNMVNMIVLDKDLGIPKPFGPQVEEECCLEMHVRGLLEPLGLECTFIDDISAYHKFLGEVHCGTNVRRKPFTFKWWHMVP
Sequence of Protein-arginine deiminase type-3 (Homo sapiens) (Q9ULW8 whole entry, looked up): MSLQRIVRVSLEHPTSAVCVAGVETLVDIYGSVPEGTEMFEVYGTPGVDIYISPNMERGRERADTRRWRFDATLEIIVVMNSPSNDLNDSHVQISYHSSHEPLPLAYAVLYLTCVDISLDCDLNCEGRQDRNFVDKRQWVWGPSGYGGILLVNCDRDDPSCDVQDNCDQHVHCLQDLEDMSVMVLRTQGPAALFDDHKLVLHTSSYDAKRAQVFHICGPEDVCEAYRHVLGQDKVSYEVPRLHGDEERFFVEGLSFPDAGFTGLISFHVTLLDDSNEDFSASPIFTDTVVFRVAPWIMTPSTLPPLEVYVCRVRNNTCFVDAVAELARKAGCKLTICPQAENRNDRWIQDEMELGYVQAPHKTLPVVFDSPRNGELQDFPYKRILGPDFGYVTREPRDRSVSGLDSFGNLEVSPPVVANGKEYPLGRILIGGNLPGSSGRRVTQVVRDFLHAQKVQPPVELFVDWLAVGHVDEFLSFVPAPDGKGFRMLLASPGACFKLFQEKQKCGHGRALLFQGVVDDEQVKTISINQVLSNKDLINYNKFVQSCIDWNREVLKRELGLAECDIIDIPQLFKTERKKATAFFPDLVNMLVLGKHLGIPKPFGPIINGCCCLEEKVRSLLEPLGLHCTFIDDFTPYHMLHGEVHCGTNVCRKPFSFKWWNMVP

NC1=CC(=O)c2cccnc2C1=O
active: [1] 170 nM | [2] 740 nM | [3] 970 nM | [4] 1000 nM
